{"source": "paper PMC3646166", "about": "“Comparison of Aqueous and 1-Octanol Solubility as well as Liquid–Liquid Distribution of Acyclovir Derivatives and Their Complexes with Hydroxypropyl-β-Cyclodextrin” (Journal of Solution Chemistry, 2013)", "key": {"[1]": {"assay": "Solubility in buffered cyclodextrin solutions (excess method of Higuchi and Connors)", "type": "physicochemical", "conditions": "phosphate buffer saturated with 1-octanol, aqueous buffer, thermodynamic from solid, pH = 7.0, 37 °C, read-out: Solubility, C 6-Ph-O-Me-TACV"}, "[2]": {"assay": "Solubility in buffered cyclodextrin solutions (excess method of Higuchi and Connors)", "type": "physicochemical", "parameters": "Stability constant K s of HP-β-CD complex: unit not given here", "conditions": "for Correlation parameter a (Eq. 2, Cs = a + b·CCD) / Correlation parameter b (Eq. 2, Cs = a + b·CCD): buffered HP-β-CD solutions; for solubility / solubility at 7 days: thermodynamic from solid, read-out: Solubility, C 6-Ph-O-Me-TACV", "description": "Solubilities of the studied compounds was ensured according to the excess method of Higuchi and Connors. […] An excess amount of compounds 4-9 and 11-12 was added to 1.5 mL of aqueous phosphate buffer (concentration of buffer was equal 0.067 mol·dm^-3) solutions, (pH = 5.5 or 7.0) containing various concentration of HP-β-CD. The cyclodextrin concentration changed in the range of 10^-3 to 2 × 10^-2 mol·dm^-3. The suspensions were shaken in screw-capped plastic vials in a water bath thermostat with the volume of 60 dm^3 (home made apparatus by IChF PAN) at 25 and 37 °C. After 7 days equilibrium was reached and then the suspensions were centrifuged and the absorbance of the studied compounds was measured by UV-Vis spectrophotometry using a Shimadzu UV 2401 PC Spectrometer equipped with a thermostatically controlled cell compartment. During the measurement of absorbance, a buffered-solution of HP-β-CD, of the same concentration as in the studied solution, was always put as the reference. The average values of at least three independent determinations of the absorbance were used for calculation of the concentrations of the particular acyclovir derivatives. […] The main reason for the low solubility of tricyclic acyclovir derivatives with aromatic groups in water is the high hydrophobicity of these substituents. Use of cyclodextrins, which can include aromatic groups into their cavity, may enhance the aqueous solubility of such compounds. For this purpose we used several cyclodextrins and hydroxypropyl-β-cyclodextrin was chosen as being more efficient for complexating the tricyclic acyclovir derivatives. The investigations were performed, for chosen compounds, in various cyclodextrin HP-β-CD, buffered solutions (pH = 5.5 and 7.0) at 25 and 37 °C. […] Values of the correlation parameters a and b for tricyclic acyclovir derivatives complexed by cyclodextrin are presented in Table 3. […] The stability constants of the inclusion complexes between HP-β-CD and acyclovir derivatives have been calculated according to the Higuchi-Connors method using:3 K=b/C0(1-b) where C 0 is the solubility of the sample in solutions without cyclodextrin, obtained by determination of saturated solution concentration of acyclovir derivative solutions. […] These two values can differ, but in our study are very close to each other."}, "[3]": {"assay": "Extraction experiments, 1-octanol-water partition coefficient", "type": "physicochemical", "conditions": "25 °C, read-out: Partition coefficient 1-octanol–water, P oc/w (converted)", "description": "The equipment described above was also used for the determination of the 1-octanol-water partition coefficients. […] The partition coefficient was evaluated as:1 Poc/w=Coc/Cw where C oc and C w are the molar concentrations of the solute in the 1-octanol and water phases, respectively. The correctness of the P oc/w value of each compound was verified by checking the mass balance of the starting amount of the substance and the total amount of the substance partitioned between the two phases."}, "[4]": {"test_system": "HSV-1 and HSV-2 viruses", "parameters": "method as in PMID 7932543", "conditions": "towards HSV-1 and HSV-2 viruses ref 8; cited from earlier work"}, "[5]": {"assay": "Solubility in water or 1-octanol (saturated solutions, UV-Vis)", "type": "physicochemical", "conditions": "for solubility: thermodynamic from solid, water", "description": "The sample of substance examined (10 mg or 80 mg for 6-Me-TACV) was placed in a glass ampoule and double-distilled, deionized water (Millipore, Elix 5 purifier), or pure anhydrous 1-octanol (Sigma 99 %) was added. To attain thermodynamic equilibrium, the solute and the solvent were mixed continuously for a minimum of 4 days at a speed of 25 rpm. After the experiment was completed, the sample was centrifuged at 40,000 rpm for 40 min at 25 ± 0.1 °C, the supernatant liquid was collected, diluted, and its concentration determined with a UV–Vis (Varian Carry IE) spectrophotometer. The experiments were repeated at least three times for each solubility."}}, "note": "Read-outs that look alike come from different tables or passages of the source.", "data": [{"smiles": "COc1ccc(-c2cn3c(=O)c4ncn(COCCO)c4nc3[nH]2)cc1", "note": "[Compound 11]", "values": [{"measurement": "solubility at 7 days", "setting": "[1]", "result": 139, "unit": "µM"}, {"measurement": "Correlation parameter a (Eq. 2, Cs = a + b·CCD)", "setting": "[2]; pH = 5.5, 25 °C", "result": "5.23 × 10^−5"}, {"measurement": "Correlation parameter b (Eq. 2, Cs = a + b·CCD)", "setting": "[2]; pH = 5.5, 25 °C", "result": "1.00 × 10^−2"}, {"measurement": "Correlation parameter a (Eq. 2, Cs = a + b·CCD)", "setting": "[2]; pH = 5.5, 37 °C", "result": "9.95 × 10^−5"}, {"measurement": "Correlation parameter b (Eq. 2, Cs = a + b·CCD)", "setting": "[2]; pH = 5.5, 37 °C", "result": "1.41 × 10^−2"}, {"measurement": "Correlation parameter a (Eq. 2, Cs = a + b·CCD)", "setting": "[2]; pH = 7.0, 25 °C", "result": "5.68 × 10^−5"}, {"measurement": "Correlation parameter b (Eq. 2, Cs = a + b·CCD)", "setting": "[2]; pH = 7.0, 25 °C", "result": "1.06 × 10^−2"}, {"measurement": "Correlation parameter a (Eq. 2, Cs = a + b·CCD)", "setting": "[2]; pH = 7.0, 37 °C", "result": "1.37 × 10^−4"}, {"measurement": "Correlation parameter b (Eq. 2, Cs = a + b·CCD)", "setting": "[2]; pH = 7.0, 37 °C", "result": "1.30 × 10^−2"}, {"measurement": "solubility", "setting": "[2]; organic solvent or mixture, 1-Octanol saturated with buffer, pH = 5.5, 25 °C", "result": 473, "unit": "µM"}, {"measurement": "solubility", "setting": "[2]; organic solvent or mixture, 1-Octanol saturated with buffer, pH = 5.5, 37 °C", "result": 741, "unit": "µM"}, {"measurement": "solubility at 7 days", "setting": "[2]; organic solvent or mixture, 1-Octanol saturated with buffer, pH = 7.0, 25 °C", "result": 485, "unit": "µM"}, {"measurement": "solubility at 7 days", "setting": "[2]; organic solvent or mixture, 1-Octanol saturated with buffer, pH = 7.0, 37 °C", "result": 882, "unit": "µM"}, {"measurement": "Stability constant K s of HP-β-CD complex", "setting": "[2]; pH = 5.5, 25 °C", "result": "213 (±6) dm·mol^−1"}, {"measurement": "Stability constant K s of HP-β-CD complex", "setting": "[2]; pH = 5.5, 37 °C", "result": "144 (±5)"}, {"measurement": "Stability constant K s of HP-β-CD complex", "setting": "[2]; pH = 7, 25 °C", "result": "189 (±6) dm·mol^−1"}, {"measurement": "Stability constant K s of HP-β-CD complex", "setting": "[2]; pH = 7, 37 °C", "result": "96 (±4)"}, {"measurement": "solubility at 7 days", "setting": "[2]; phosphate buffer saturated with 1-octanol, aqueous buffer, Buffer saturated with 1-octanol, pH = 5.5, 25 °C", "result": 74.2, "unit": "µM"}, {"measurement": "solubility at 7 days", "setting": "[2]; phosphate buffer saturated with 1-octanol, aqueous buffer, Buffer saturated with 1-octanol, pH = 5.5, 37 °C", "result": 127, "unit": "µM"}, {"measurement": "solubility at 7 days", "setting": "[2]; phosphate buffer saturated with 1-octanol, aqueous buffer, Buffer saturated with 1-octanol, pH = 7.0, 25 °C", "result": 58.7, "unit": "µM"}, {"measurement": "solubility at 7 days", "setting": "[2]; phosphate buffer saturated with 1-octanol, aqueous with cosolvent or surfactant or cyclodextrin, Buffer saturated with 1-octanol + HP-β-CD (2 × 10^−2 mol·dm^−3), pH = 5.5, 25 °C", "result": 40.3, "unit": "µM"}, {"measurement": "solubility at 7 days", "setting": "[2]; phosphate buffer saturated with 1-octanol, aqueous with cosolvent or surfactant or cyclodextrin, Buffer saturated with 1-octanol + HP-β-CD (2 × 10^−2 mol·dm^−3), pH = 5.5, 37 °C", "result": 77, "unit": "µM"}, {"measurement": "solubility at 7 days", "setting": "[2]; phosphate buffer saturated with 1-octanol, aqueous with cosolvent or surfactant or cyclodextrin, Buffer saturated with 1-octanol + HP-β-CD (2 × 10^−2 mol·dm^−3), pH = 7.0, 25 °C", "result": 40.3, "unit": "µM"}, {"measurement": "solubility at 7 days", "setting": "[2]; phosphate buffer saturated with 1-octanol, aqueous with cosolvent or surfactant or cyclodextrin, Buffer saturated with 1-octanol + HP-β-CD (2 × 10^−2 mol·dm^−3), pH = 7.0, 37 °C", "result": 80.6, "unit": "µM"}, {"measurement": "solubility at 7 days", "setting": "[2]; phosphate buffer with HP-β-CD, aqueous with cosolvent or surfactant or cyclodextrin, Buffer + HP-β-CD (2 × 10^−2 mol·dm^−3), pH = 5.5, 25 °C", "result": 244, "unit": "µM"}, {"measurement": "solubility at 7 days", "setting": "[2]; phosphate buffer with HP-β-CD, aqueous with cosolvent or surfactant or cyclodextrin, Buffer + HP-β-CD (2 × 10^−2 mol·dm^−3), pH = 5.5, 37 °C", "result": 374, "unit": "µM"}, {"measurement": "solubility at 7 days", "setting": "[2]; phosphate buffer with HP-β-CD, aqueous with cosolvent or surfactant or cyclodextrin, Buffer + HP-β-CD (2 × 10^−2 mol·dm^−3), pH = 7.0, 25 °C", "result": 265, "unit": "µM"}, {"measurement": "solubility at 7 days", "setting": "[2]; phosphate buffer with HP-β-CD, aqueous with cosolvent or surfactant or cyclodextrin, Buffer + HP-β-CD (2 × 10^−2 mol·dm^−3), pH = 7.0, 37 °C", "result": 391, "unit": "µM"}, {"measurement": "solubility at 7 days", "setting": "[2]; phosphate buffer, aqueous buffer, Buffer, pH = 5.5, 25 °C", "result": 48.2, "unit": "µM"}, {"measurement": "solubility at 7 days", "setting": "[2]; phosphate buffer, aqueous buffer, Buffer, pH = 5.5, 37 °C", "result": 99.4, "unit": "µM"}, {"measurement": "solubility at 7 days", "setting": "[2]; phosphate buffer, aqueous buffer, Buffer, pH = 7.0, 25 °C", "result": 55, "unit": "µM"}, {"measurement": "solubility at 7 days", "setting": "[2]; phosphate buffer, aqueous buffer, Buffer, pH = 7.0, 37 °C", "result": 136, "unit": "µM"}, {"measurement": "logP at 2 days", "setting": "[3]", "result": 0.386}, {"measurement": "Antiherpetic activity relative to parent acyclovir (concentrations required to reduce virus-induced cytopathicity by 50 %)", "setting": "[4]", "result": "2–7 times higher"}, {"measurement": "Solubility ratio in 1-octanol and water, C oc/C w", "setting": "[5]; 25 °C", "result": 7.62}, {"measurement": "Solubility ratio in 1-octanol saturated with water and water saturated with 1-octanol, C ocw/C woc", "setting": "[5]; 25 °C", "result": 2.84}, {"measurement": "solubility", "setting": "[5]; 25 °C (Table 1), read-out: Solubility in water, C w", "result": 53, "unit": "µM"}, {"measurement": "solubility", "setting": "[5]; water saturated with 1-octanol, 25 °C, read-out: Solubility in water saturated with 1-octanol, C woc", "result": 135, "unit": "µM"}, {"measurement": "solubility", "setting": "[5]; 35 °C, read-out: Aqueous solubility, C w", "result": 144, "unit": "µM"}, {"measurement": "solubility", "setting": "[5]; 45 °C, read-out: Aqueous solubility, C w", "result": 465, "unit": "µM"}]}]}
